These are literature values, as cited in patent US9149457B2, “Nutraceutical composition for PDE4 inhibition, enhanced dopamine metabolism and long term potentiation” (priority 2013, dated 2015).

One series deals with acetylcholine. Conditions: references 33-35.
Series [1] has as its system phosphodiesterase enzymes (PDE 1 through 5). Conditions: references 24-27.
For series [2] the following is noted: references 46-47.
The conditions of series [3]: references 7-13.

Turning to `CC(=O)O[C@H](CC(=O)[O-])C[N+](C)(C)C` [Acetyl-L-carnitine, acetyl-L-carnitine], the “levels of acetylcholine in the brain” value in the series with acetylcholine is “increase the levels”.

Take `O=c1cc(-c2ccc(O)c(O)c2)oc2cc(O)cc(O)c12` [Luteolin, luteolin]: the “inhibition of phosphodiesterase enzymes that degrade 3',5'-cyclic nucleotides” value in series [1] is “can inhibit”.

In the case of `O=C(/C=C/C=C/c1ccc2c(c1)OCO2)N1CCCCC1` [Piperine, piperine], in series [2], the bioavailability of resveratrol result is listed as “enhance the bioavailability of resveratrol”.

As to `COc1ccc(C2CNC(=O)C2)cc1OC1CCCC1` (stereo not shown) [rolipram], the side effect result in series [3] is recorded as “emesis (vomiting) at low doses”.
